# Laboratory results published in PMC8243516, “Inhibition of lysosomal phospholipase A2 predicts drug-induced phospholipidosis” (Journal of Lipid Research, 2021).
# Read-outs that look alike come from different tables or passages of the source.
# Experiments:
# phospholipidosis [1] = settings: phospholipidosis reported in vitro; Refs of Table 1; cited from earlier work
# phospholipidosis [2] = settings: phospholipidosis reported in vivo, species codes; Refs of Table 1; cited from earlier work
# [3] = biological target: T1, recombinant mouse LPLA2 (PLA2G15) (Mus musculus, UniProt Q8VEB4); experiment: Transacylase activity of LPLA2 (1-O-acyl-N-acetylsphingosine synthase, cell-free liposome assay); format: biochemical
# T1 construct: purchased Proteos Inc. (Kalamazoo, MI)
# T1 sequence (Q8VEB4 34-412): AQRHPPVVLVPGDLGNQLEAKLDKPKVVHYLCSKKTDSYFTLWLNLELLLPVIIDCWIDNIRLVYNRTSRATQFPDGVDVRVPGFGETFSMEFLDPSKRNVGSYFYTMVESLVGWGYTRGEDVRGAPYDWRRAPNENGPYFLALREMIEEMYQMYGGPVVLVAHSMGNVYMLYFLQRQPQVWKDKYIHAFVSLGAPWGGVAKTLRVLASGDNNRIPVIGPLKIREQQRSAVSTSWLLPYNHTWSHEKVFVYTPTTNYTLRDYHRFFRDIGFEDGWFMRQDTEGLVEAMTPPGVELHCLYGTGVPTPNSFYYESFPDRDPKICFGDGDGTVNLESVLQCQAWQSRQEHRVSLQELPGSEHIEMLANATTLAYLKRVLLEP
# MDCK cells = experiment: Screening phospholipidosis assay (LipidTOX Red / NucBlue Live fluorescence ratio); settings: for Ratio (15 μM): LipidTOX Red to NucBlue Live fluorescence ratio, 24 h
# LPLA2 = biological target: T2, LPLA2 (Mus musculus, UniProt Q8VEB4); experiment: LPLA2 thermal stability measurement (SYPRO Orange Tm); format: binding
# T2 construct: purchased Proteos Inc. (Kalamazoo, MI)
# T2 sequence (Q8VEB4 34-412): T1 sequence (Q8VEB4 34-412)
# [4] = cited from earlier work
# [5] = ref Pubchem and chEMBL databases
# [6] = LPLA2 dependent 1-O-acyl N-acetylsphingosine synthase activity, read-out: LPLA2 IC50
# [7] = ref Pubchem and chEMBL database
# [8] = 1-O-acyl N-acetylsphingosine synthase activity, pH 4.5, DOPC/sulfatide liposomes, read-out: LPLA2 IC50
SMILES,In Vivo PLD (phospholipidosis [2]),Ratio (15 μM) (MDCK cells),"IC50 [3, 6]","(ΔTm)c-(ΔTm)d, difference in melting temperature of LPLA2 alone or in the presence of drug (LPLA2; N=3 ± SD)","pKa (basic) [4, 7]",also measured
"CCCCc1oc2ccccc2c1C(=O)c1cc(I)c(OCCN(CC)CC)c(I)c1 [Amiodarone, {2-[4-(2-butyl-1-benzofuran-3-carbonyl)-2,6-diiodophenoxy]ethyl} diethyl amine]","H,R",,,,,In Vitro PLD (phospholipidosis [1]): Yes
"CCc1oc2ccccc2c1C(=O)c1cc(Br)c(O)c(Br)c1 [Benzbromarone, 2,6-dibromo-4-(2-ethyl-1-benzofuran-3-carbonyl)phenol]",,0.5,,,,"IC50 ([3]; LPLA2 IC50, 1-O-acyl N-acetylsphingosine synthase activity, pH 4.5, DOPC/sulfatide liposomes): 3.8 µM; In Vitro PLD (phospholipidosis [1]): Yes; (ΔTm)c-(ΔTm)d, difference in melting temperature of LPLA2 alone or in the presence of drug (LPLA2): -1.40 ± 0.3 °C; pKa (basic) [4, 5]: -3.8"
NC(=O)N1c2ccccc2C=Cc2ccccc21 [Carbamazepine],,0.18,106 µM,-1.26 ± 0.1 °C,-3.8,
"CCN(CC)CCCC(C)Nc1ccnc2cc(Cl)ccc12 (stereo not drawn) [Chloroquine, 7-chloro-N-[5-(diethylamino)pentan-2-yl]quinolin-4-amine]","H, R, D, M",,,,,"IC50 [3, 8]: 655 µM; In Vitro PLD (phospholipidosis [1]): Yes"
"CCC[C@@H]1C[C@@H](C(=O)NC(C(C)Cl)[C@H]2O[C@H](SC)[C@H](O)[C@@H](O)[C@H]2O)N(C)C1 (stereo partly drawn) [Clindamycin, (2S,4R)-N-{2-chloro-1-[(2R,3R,4S,5R,6R)-3,4,5-trihydroxy-6-(methylsulfanyl)oxan-2-yl]propyl}-1-methyl-4-propylpyrrolidine-2-carboxamide]",Yes,,,,,In Vitro PLD (phospholipidosis [1]): Yes
CCOC(=O)COc1ccc2c(C)c(CCN(CC)CC)c(=O)oc2c1Cl [Cloricromen],,0.1,285 µM,0.24 ± 0.1 °C,9.1,
"CN(C)CCC=C1c2ccccc2C=Cc2ccccc21 [Cyclobenzaprine, dimethyl(3-{tricyclo[9.4.0.0^3,^8]pentadeca-1(15),3,5,7,9,11,13-heptaen-2-ylidene}propyl)amine]",Yes,,,,,"IC50 [3, 8]: 6.24 µM; In Vitro PLD (phospholipidosis [1]): Yes"
COc1cc(C(=O)OCCCN2CCCN(CCCOC(=O)c3cc(OC)c(OC)c(OC)c3)CC2)cc(OC)c1OC [Dilazep],,1.17,59.8 µM,0.11 ± 0.1 °C,9.54,
"COc1ccc(C(=O)Nc2ccccc2CCC2CCCCN2C)cc1 (stereo not drawn) [Encainide, 4-methoxy-N-{2-[2-(1-methylpiperidin-2-yl)ethyl]phenyl} benzamide]",,0.23,,-0.76 ± 0.1 °C,,"IC50 [3, 8]: 76.1 µM; In Vitro PLD (phospholipidosis [1]): Yes; pKa (basic) [4, 5]: 9.41"
"CNCCC(Oc1ccc(C(F)(F)F)cc1)c1ccccc1 (stereo not drawn) [Fluoxetine, methyl({3-phenyl-3-[4-(trifluoromethyl)phenoxy]propyl}) amine]","H,R,M",,,,,In Vitro PLD (phospholipidosis [1]): Yes
O=C(O)[C@@H]1C[C@@H](C2CCCCC2)CN1C(=O)CP(=O)(O)CCCCc1ccccc1 [Fosinoprilat],,0.19,5.76 µM,-1.45 ± 0.9 °C,-4.7,"IC50 [3, 8]: 5.8 µM; Signal in the LipidTOX assay (in words) (MDCK cells): positive signal"
C[C@]12CC[C@@H]3c4ccc(O)cc4C[C@@H](CCCCCCCCC[S+]([O-])CCCC(F)(F)C(F)(F)F)[C@H]3[C@@H]1CC[C@@H]2O (stereo partly drawn) [Fulvestrant],,0.37,61.8 µM,-1.05 ± 4.0 °C,-0.88,
CC(=O)O[C@H]1C[C@@]2(C)[C@@H](C[C@@H](O)[C@H]3[C@@]4(C)CC[C@@H](O)[C@@H](C)[C@@H]4CC[C@@]32C)/C1=C(\CCC=C(C)C)C(=O)O [Fuscidic acid],,0.23,231 µM,0.94 ± 0.1 °C,-0.2,
NNc1nncc2ccccc12 [Hydralazine],,0.6,100 µM,1.20 ± 0.1 °C,6.4,
"OCCOCCN1CCN(C(c2ccccc2)c2ccc(Cl)cc2)CC1 (stereo not drawn) [Hydroxyzine, 2-(2-{4-[(4-chlorophenyl) (phenyl)methyl]piperazin-1-yl}ethoxy)ethan-1-ol]",R,,,-0.10 ± 0.0 °C,,"IC50 [3, 8]: 63 µM; pKa (basic) [4, 5]: 7.82"
CC(C)Cn1cnc2c(N)nc3ccccc3c21 [Imiquimod],,0.07,160 µM,0.66 ± 0.2 °C,5.01,

SMILES,In Vivo PLD (phospholipidosis [2]),Ratio (15 μM) (MDCK cells),"IC50 [3, 6]","(ΔTm)c-(ΔTm)d, difference in melting temperature of LPLA2 alone or in the presence of drug (LPLA2; N=3 ± SD)","pKa (basic) [4, 7]",also measured
"CNCCCC12CCC(c3ccccc31)c1ccccc12 [Maprotiline, methyl(3-{tetracyclo [6.6.2.0^2,^7.0^9,^14]hexadeca-2,4,6,9,11, 13-hexaen-1-yl}propyl)amine]",R,,,,,"pKa (basic) [4, 5]: 10.54"
COc1ccc2[nH]cc(CCNC(C)=O)c2c1 [Melatonin],,0.26,38 µM,0.15 ± 0.1 °C,-1.6,
COCC(=O)O[C@]1(CCN(C)CCCc2nc3ccccc3[nH]2)CCc2cc(F)ccc2[C@@H]1C(C)C [Mibefradil],,1.21,12.9 µM,1.30 ± 0.1 °C,9.82,
"Fc1ccc([C@@H]2CCNC[C@H]2COc2ccc3c(c2)OCO3)cc1 [Paroxetine, (3S,4R)-3-[(2H-1,3-benzodioxol-5-yloxy)methyl]-4-(4-fluorophenyl)piperidine]",R,,,,,"IC50 [3, 8]: 5.12 µM"
NC(=O)C1(N2CCCCC2)CCN(CCCC(=O)c2ccc(F)cc2)CC1 [Pipamperone],,0.37,250 µM,0.83 ± 0.1 °C,8.96,
"CCN(CC)CCCC(C)Nc1c2ccc(Cl)cc2nc2ccc(OC)cc12.Cl.Cl (stereo not drawn) [Quinacrine, 6-chloro-9-(4-diethylamino-1-methylbutylamino)-2-methoxyacridine dihydrochloride]",R,,,,,In Vitro PLD (phospholipidosis [1]): Yes
"C=C[C@H]1C[N@@]2CC[C@H]1C[C@H]2[C@H](O)c1ccnc2ccc(OC)cc12 [Quinine, (R)-[(1S,2S,4S,5R)-5-ethenyl-1-azabicyclo [2.2.2]octan-2-yl](6-methoxyquinolin-4-yl)methanol]",Yes,,,-1.00 ± 0.1 °C,,"IC50 [3, 8]: 164 µM"
Cc1nc2sccn2c(=O)c1CCN1CCC(=C(c2ccc(F)cc2)c2ccc(F)cc2)CC1 [Ritanserin],,0.19,13.4 µM,-1.90 ± 02 °C,8,
COc1ccc(C2CNC(=O)C2)cc1OC1CCCC1 (stereo not drawn) [Rolipram],,0.19,300 µM,-1.85 ± 0.9 °C,-1.9,
"CN[C@H]1CC[C@@H](c2ccc(Cl)c(Cl)c2)c2ccccc21 [Sertraline, (1S,4S)-4-(3,4-dichlorophenyl)-N-methyl-1,2,3,4-tetrahydronaphthalen-1-amine]",Yes,,,,,In Vitro PLD (phospholipidosis [1]): Yes
CCCCCCCCNC(C)C(O)c1ccc(SC(C)C)cc1 (stereo not drawn) [Suloctidil],,0.66,6.82 µM,2.00 ± 0.2 °C,9.76,
"CCN1CCCC1CNC(=O)c1cc(S(N)(=O)=O)ccc1OC (stereo not drawn) [Sulpiride, N-[(1-ethylpyrrolidin-2-yl)methyl]-2-methoxy-5-sulfamoylbenzamide]",Yes,,,1.34 ± 0.9 °C,,"LPLA2 inhibition (in words) ([3]; acyl transferase activity): no inhibitory activity; pKa (basic) [4, 5]: 8.4"
CN1CCN(CCCN2c3ccccc3Sc3ccc(C(F)(F)F)cc32)CC1 [Trifluoperazine],,0.81,6.87 µM,,8.39,"(ΔTm)c-(ΔTm)d, difference in melting temperature of LPLA2 alone or in the presence of drug (LPLA2): 0.49 ± 0.3 °C"
Cc1cc(C(C)(C)C)cc(C)c1CC1=NCCN1 [Xylometazoline],,0.16,44.3 µM,0.66 ± 0.0 °C,10.29,
CC[C@H](NC(=O)c1c(C)c(-c2ccccc2)nc2ccccc12)c1ccccc1 [sb222200],,0.34,14.9 µM,-1.20 ± 0.1 °C,9.57,
